The text below walks through data of US20230303599A1, “PRODRUGS OF PHOSPHONAMIDE NUCLEOTIDE ANALOGUES AND THEIR PHARMACEUTICAL USE” (priority 2020, published 2023).

In brackets after ≈: the same amount, converted by molar mass. A value given as a limit tells only on which side of the number the result lay.

The nature of data set [1]: Cytotoxicity assay in MT-4 cells. Format: cell-based. As to conditions: human, uninfected MT-4 cells, average of at least two independent experiments, read-out: MT4 CC50. Put shortly:
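Uninfected MT-4 cells were incubated 5 days at 37 °C with 1:3 serially diluted compound in RPMI (10% FBS), with 10 μM puromycin as baseline cytotoxicity. Viability was read by CellTiter-Glo luminescence. Values are concentrations giving 50% luminescence decrease, from sigmoidal dose-response fits.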

Data set [2] is described as follows: Kinetic solubility analysis. Format: physicochemical. To be noted: 1× PBS, 24.2 °C, aqueous buffer, kinetic from dmso stock; pH 7.4 PBS, 1% DMSO, 24-hour incubation at ambient temperature. The method, boiled down:
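Compounds from 10 mM DMSO stocks were incubated in 0.1 N HCl or 1× PBS pH 7.4 (1.0% DMSO, 100 μM maximum theoretical) for 24 h at 24.2-27.5 °C, then vacuum filtered. Filtrates were quantified in μM by chemiluminescent nitrogen detection against a calibration curve, corrected for background nitrogen; values for adjacent ring-nitrogen compounds were raised ~25%.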

The nature of data set [3]: Cytotoxicity assay in primary human hepatocytes (PHHs). Type of data set: cell-based. As to conditions: HBV-infected primary human hepatocytes, HBV-infected PHH, Cell Titer Glo, average of at least two independent experiments. The protocol:
Example 107: Cytotoxicity Assay in Primary Human Hepatocytes (PHHs)
The HBV-infected primary human hepatocytes are seeded (20K cells/well in 80 uL of Media) in 384well collagen coated plates pre-spotted with compounds. After 5 days, 40 ul of cell supernatant is removed to quantify HBV DNA levels as described in Example 106. Then, 40 ul Cell Titer Glo Reagent (Promega Catalog Number: G7572) is added to the remaining cells and luminescence is measured on the EnVision microplate reader.

For a further data set, the system named is HBV. Put plainly: Antiviral (HBV) assay in primary human hepatocytes (PHHs). To be noted: Hepatitis B virus, Hepatocyte, 120 h; HBV (GTD) infected PHH, 5 days, HBV DNA in supernatant; average of at least two independent experiments. Type of data set: cell-based. The protocol: Example 106: Antiviral (HBV) Assay in Primary Human Hepatocytes (PHHs)
Cryopreserved PHH were thawed, recovered by centrifugation at 100 g in cryopreserved hepatocyte recovery medium (Thermo Fisher Scientific; CM7500), and plated on collagen matrix (Life Technologies; Catalog Number: R-011-K) coated T225 flasks (Corning CellBIND, Catalog Number: 3293) at a density of 25E6 live cells in 60 mls media. Cells were plated in William's E medium (Thermo Fisher Scientific; A1217601) supplemented with 3.6% hepatocyte thawing and plating supplement (Thermo Fisher Scientific, A15563), 5% fetal bovine serum (Thermo Fisher Scientific; 16000-036), 1 μM dexamethasone (Thermo Fisher Scientific, A15563), and 0.2% Torpedo antibiotic mix (Bioreclamation; Z990008). The plating medium was removed after 14 hours and the cells were subsequently cultured in maintenance medium: William's E medium supplemented with 4% hepatocyte maintenance supplement (Thermo Fisher Scientific; AI15564), 2% fetal bovine serum, 0.1μ M dexamethasone, 1.5% DMSO (Sigma-Aldrich, St. Louis, MO; D8418), and 0.2% Torpedo antibiotic mix. Approximately 24 hours after plating, PHH were infected with HepAD38-derived GTD virus at 500 viral genome equivalents per cell in PHH maintenance medium supplemented with 4% PEG 8000 (Promega, Madison, WI; V3011). Infections were allowed to proceed for 24 hours before removing the remaining extracellular virions by washing with maintenance medium three times. After allowing viral infection to take place for 3 days, the infected cells were harvested from the flasks by trypsinization (0.25X in PBS without Ca/Mg, 25 minutes) following a 4 minute 0.5X Versene (Life Technologies Catalog Number: 15040-066) treatment and two PBS washes. Trypsinized cells were inactivated in 10% FBS containing maintenance medium, centrifuged 6 minutes at 50 g, resuspended in hepatocyte maintenance medium, filtered through a 40 uM cell strainer, and adjusted to a density of 0.25E6 cells/ml. Infected cells were seeded on 384 well collagen coated plates (Greiner, Austria) at a density of 20,000 cells/well containing serially diluted compounds of the present disclosure or DMSO (0.5%) in a final volume of 80 μl. The assay plates were incubated for a period of 5 days and the antiviral activity of the test compounds were assayed by detecting the presence of HBV DNA in the culture supernatant using the QuantiGene™ 2.0 nucleic acid quantification kit (Affymetrix, Santa Clara, CA).

For `C[C@H](Cn1cnc2c(N)ncnc21)OCP(=O)(NC(C)(C)C(=O)O[C@H]1C[C@@H](C(C)(C)C)C1)NC(C)(C)C(=O)O[C@H]1C[C@@H](C(C)(C)C)C1` [Example 51, Bis((1S,3S)-3-(tert-butyl)cyclobutyl) 2,2′-((((((R)-1-(6-amino-9H-purin-9-yl)propan-2-yl)oxy)methyl)phosphoryl)bis(azanediyl))bis(2-methylpropanoate)], the CC50 at 5 days in data set [1] is 7250 nM; in data set [3] it was above 100 nM. Further, the solubility (kinetic) at 24 h in data set [2] was found to be 6 µg/mL (≈ 8.85 µM). In the data set with HBV, this compound yielded an EC50 of 6 nM.
For `C[C@H](Cn1cnc2c(N)ncnc21)OCP(=O)(NC(C)(C)C(=O)O[C@H]1C[C@H](C(C)(C)C)C1)NC(C)(C)C(=O)O[C@H]1C[C@H](C(C)(C)C)C1` [Example 52, Bis((1R,3R)-3-(tert-butyl)cyclobutyl) 2,2′-((((((R)-1-(6-amino-9H-purin-9-yl)propan-2-yl)oxy)methyl)phosphoryl)bis(azanediyl))bis(2-methylpropanoate)], in that order: 7190 nM, above 100 nM, below 1 µg/mL and 14.4 nM.
Regarding `C[C@H](Cn1cnc2c(N)ncnc21)OCP(=O)(NC(C)(C)C(=O)OCC1CCC2(CCC2)CC1)NC(C)(C)C(=O)OCC1CCC2(CCC2)CC1` (stereo partly drawn) [Example 53, Bis(spiro[3.5]nonan-7-ylmethyl) 2,2′-(((((1-(6-amino-9H-purin-9-yl)propan-2-yl)oxy)methyl)phosphoryl)bis(azanediyl))(R)-bis(2-methylpropanoate)], the CC50 at 5 days is 7550 nM in data set [1] and above 100 nM in data set [3]. In addition, the kinetic solubility at 24 h in data set [2] was below 1 µg/mL. The compound also gave an EC50 in the data set on HBV of 8.38 nM.
For `CCC(C)(C)CCOC(=O)C(C)(C)NP(=O)(CO[C@H](C)Cn1cnc2c(N)ncnc21)NC(C)(C)C(=O)OCCC(C)(C)CC` [Example 54, Bis(3,3-dimethylpentyl) 2,2′-(((((1-(6-amino-9H-purin-9-yl)propan-2-yl)oxy)methyl)phosphoryl)bis(azanediyl))(R)-bis(2-methylpropanoate)], in that order: 6720 nM, above 100 nM, 12 µg/mL (≈ 18.4 µM) and 4.45 nM.
For the compound `C[C@H](Cn1cnc2c(N)ncnc21)OCP(=O)(NC(C)(C)C(=O)O[C@H](C)C1CCCCC1)NC(C)(C)C(=O)O[C@H](C)C1CCCCC1` [Example 55, Bis((R)-1-cyclohexylethyl) 2,2′-((((((R)-1-(6-amino-9H-purin-9-yl)propan-2-yl)oxy)methyl)phosphoryl)bis(azanediyl))bis(2-methylpropanoate)], the figures for the CC50 at 5 days in data set [1] and in data set [3] were 9420 nM and above 100 nM, respectively. In addition, in data set [2], the solubility (kinetic) at 24 h was below 1 µg/mL. This compound also came in with an EC50 in the data set with HBV of 6.26 nM.
`C[C@H](Cn1cnc2c(N)ncnc21)OCP(=O)(NC(C)(C)C(=O)O[C@@H](C)C1CCCCC1)NC(C)(C)C(=O)O[C@@H](C)C1CCCCC1` [Example 56, Bis((S)-1-cyclohexylethyl) 2,2′-((((((R)-1-(6-amino-9H-purin-9-yl)propan-2-yl)oxy)methyl)phosphoryl)bis(azanediyl))bis(2-methylpropanoate)]: the CC50 at 5 days was 9650 nM in data set [1] and above 100 nM in data set [3]. The kinetic solubility at 24 h in data set [2] was 5 µg/mL (≈ 7.38 µM). For the same compound, the EC50 in the data set on HBV was 3.99 nM.
Consider `C[C@H](Cn1cnc2c(N)ncnc21)OCP(=O)(NC(C)(C)C(=O)OCC1CC2(C1)CC1(CCC1)C2)NC(C)(C)C(=O)OCC1CC2(C1)CC1(CCC1)C2` [Example 57, Bis(dispiro[3.1.3^6.1^4]decan-2-ylmethyl) 2,2′-(((((1-(6-amino-9H-purin-9-yl)propan-2-yl)oxy)methyl)phosphoryl)bis(azanediyl))(R)-bis(2-methylpropanoate)], for which the results for the CC50 at 5 days in data set [1] and in data set [3] were 6620 nM and above 100 nM, respectively. The kinetic solubility at 24 h in data set [2] is below 1 µg/mL. The compound also returned an EC50 in the data set with HBV of 4.71 nM.
